These results are taken from US6673793B2, “Oxazinoquinolones useful for the treatment of viral infections” (Pharmacia & Upjohn Co., priority 2000, dated 2004).

One series addresses T1, CMV polymerase (Human cytomegalovirus, UniProt P08546).
T1 construct: made in house; host or cells: recombinant baculovirus-infected SF-9 cells
Kind of series: HCMV polymerase assay, scintillation proximity assay (SPA), modified version. Type of series: biochemical. The conditions noted are these: modified HCMV polymerase SPA assay: compounds diluted in 100% DMSO, 4.5 mM DTT in polymerase buffer, different lot of CMV polymerase; read-out: CMV polymerase IC50. On the procedure:
The HCMV polymerase assay is performed using a scintillation proximity assay (SPA) as described in several references, such as N. D. Cook, et al., Pharmaceutical Manufacturing International, pages 49-53 (1992); K. Takeuchi, Laboratory Practice, September issue (1992); U.S. Pat. No. 4,568,649 (1986); which are incorporated by reference herein. Reactions are performed in 96-well plates. The assay is conducted in 100 μl volume with 5.4 mM HEPES (pH 7.5), 11.7 mM KCl, 4.5 mM MgCl2, 0.36 mg/ml BSA, and 90 nM ^3H-dTTP. Assays are run with and without CHAPS, (3-[(3-Cholamidopropyl)-dimethylammonio]-1-propane-sulfonate) at a final concentration of 2 mM. HCMV polymerase is diluted in enzyme dilution buffer containing 50% glycerol, 250 mM NaCl, 10 mM HEPES (pH 7.5), 100 μg/ml BSA, and 0.01% sodium azide. The HCMV polymerase, which is expressed in recombinant baculovirus-infected SF-9 cells and purified according to literature procedures, is added at 10% (or 10 μl) of the final reaction volume, i.e., 100 μl. Compounds are diluted in 50% DMSO and 10 μl are added to each well. Control wells contain an equivalent concentration of DMSO. Unless noted otherwise, reactions are initiated via the addition of 6 nM biotinylated poly(dA)-oligo(dT) template/primer to reaction mixtures containing the enzyme, substrate, and compounds of interest. Plates are incubated in a 25 C. or 37 C. H2O bath and terminated via the addition of 40 μl/reaction of 0.5 M EDTA (pH 8) per well. Reactions are terminated within the time-frame during which substrate incorporation is linear and varied depending upon the enzyme and conditions used, i.e., 30 min. for HCMV polymerase. Ten μl of streptavidin-SPA beads (20 mg/ml in PBS/10% glycerol) are added following termination of the reaction. Plates are incubated 10 min. at 37 C., then equilibrated to room temperature, and counted on a Packard Topcount. Linear regressions are performed and IC50's are calculated using computer software.
A modified version of the above HCMV polymerase assay is performed as described above, but with the following changes: Compounds are diluted in 100% DMSO until final dilution into assay buffer. In the previous assay, compounds are diluted in 50% DMSO. 4.5 mM dithiotherotol (DTT) is added to the polymerase buffer.

A value given as a limit tells only on which side of the number the result lay.

T1 sequence (P08546 whole entry): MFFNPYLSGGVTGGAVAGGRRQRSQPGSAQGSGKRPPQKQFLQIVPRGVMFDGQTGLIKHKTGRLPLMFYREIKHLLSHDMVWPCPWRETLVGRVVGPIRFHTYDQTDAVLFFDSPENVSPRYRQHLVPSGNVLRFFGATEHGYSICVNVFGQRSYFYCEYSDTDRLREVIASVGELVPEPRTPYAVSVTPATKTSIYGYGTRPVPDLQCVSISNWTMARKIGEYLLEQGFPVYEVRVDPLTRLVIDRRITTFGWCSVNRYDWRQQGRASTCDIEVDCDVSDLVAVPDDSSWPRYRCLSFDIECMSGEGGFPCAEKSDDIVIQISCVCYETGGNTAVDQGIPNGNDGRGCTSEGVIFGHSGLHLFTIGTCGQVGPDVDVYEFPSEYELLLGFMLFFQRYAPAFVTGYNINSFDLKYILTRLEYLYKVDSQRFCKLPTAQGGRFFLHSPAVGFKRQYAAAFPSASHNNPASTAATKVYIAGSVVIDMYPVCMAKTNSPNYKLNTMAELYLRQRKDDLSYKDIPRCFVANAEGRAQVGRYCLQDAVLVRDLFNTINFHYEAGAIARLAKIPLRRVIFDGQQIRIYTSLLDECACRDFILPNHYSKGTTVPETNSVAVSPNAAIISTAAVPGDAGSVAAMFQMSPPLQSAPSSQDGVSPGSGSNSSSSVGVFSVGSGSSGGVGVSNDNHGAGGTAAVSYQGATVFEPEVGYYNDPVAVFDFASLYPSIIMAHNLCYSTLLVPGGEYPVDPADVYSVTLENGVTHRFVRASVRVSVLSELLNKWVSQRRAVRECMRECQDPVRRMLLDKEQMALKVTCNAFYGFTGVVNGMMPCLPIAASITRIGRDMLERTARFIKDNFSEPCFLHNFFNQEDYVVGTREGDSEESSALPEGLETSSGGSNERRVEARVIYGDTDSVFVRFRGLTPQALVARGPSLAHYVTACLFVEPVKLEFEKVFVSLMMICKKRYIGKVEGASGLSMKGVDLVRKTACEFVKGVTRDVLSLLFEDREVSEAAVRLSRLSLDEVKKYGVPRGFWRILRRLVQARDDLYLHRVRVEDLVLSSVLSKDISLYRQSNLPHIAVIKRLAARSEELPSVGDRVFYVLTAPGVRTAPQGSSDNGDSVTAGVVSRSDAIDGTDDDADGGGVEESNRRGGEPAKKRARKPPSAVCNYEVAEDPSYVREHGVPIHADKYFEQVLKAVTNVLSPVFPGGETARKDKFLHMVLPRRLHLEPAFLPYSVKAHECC

What is called IC50 is the point on the concentration scale where inhibition reaches its midpoint. Usually melting point stands for the temperature of the solid-liquid transition. With `O=C(NCc1ccc(Cl)cc1)c1cn2c3c(cc(CN4CCOCC4)cc3c1=O)OC(c1ccccc1CO)C2` (stereo not shown) [Example 69, N-(4-Chlorobenzyl)-2-[2-(hydroxymethyl)phenyl]-9-(morpholin-4-ylmethyl)-7-oxo-2,3-dihydro-7H-[1,4]oxazino[2,3,4-ij]quinoline-6-carboxamide], the melting point was 218 to 223 °C (dec.). On CMV polymerase, the IC50 turned out to be 330 nM.
Regarding `O=C1CCC2(CC1)Cn1cc(C(=O)NCc3ccc(Cl)cc3)c(=O)c3cc(CN4CCOCC4)cc(c31)O2` [Example 54, N-[(4-Chlorophenyl)methyl]-9′-(4-morpholinylmethyl)-4,7′-dioxospiro[cyclohexane-1,2′(3′H)-[7H]pyrido[1,2,3-de][1,4]benzoxazine]-6′-carboxamide], the melting point lay in the range of 249.5 to 252 °C. Besides, the IC50 on CMV polymerase worked out at 600 nM.
In turn, `O=C(NCc1ccc(Cl)cc1)c1cn2c3c(cc(CN4CCOCC4)cc3c1=O)OC(c1cc(F)cc(F)c1)C2` (stereo not shown) [Example 39, N-(4-Chlorobenzyl)-2-(3,5-difluorophenyl)-9-(morpholin-4-ylmethyl)-7-oxo-2,3-dihydro-7H-[1,4]oxazino[2,3,4-ij]quinoline-6-carboxamide] showed a melting point of 234 to 236 °C. For the same compound, the IC50 at CMV polymerase was 330 nM.
The compound `O=C(NCc1ccc(Cl)cc1)c1cn2c3c(cc(CN4CCOCC4)cc3c1=O)OC1(CCC(O)CC1)C2` (stereo not shown) [Example 55, N-[(4-Chlorophenyl)methyl]-4-hydroxy-9′-(4-morpholinylmethyl)-7′-oxospiro[cyclohexane-1,2′(3′H)-[7H]pyrido[1,2,3-de][1,4]benzoxazine]-6′-carboxamide] gave a melting point of 229 to 234 °C. Besides, on CMV polymerase, the IC50 is 410 nM.
The corresponding values for `O=C(NCc1ccc(Cl)cc1)c1cn2c3c(cc(CN4CCOCC4)cc3c1=O)OC1(CCOCC1)C2` [Example 46, N-[(4-Chlorophenyl)methyl]-2,3,5,6-tetrahydro-9′-(4-morpholinylmethyl)-7′-oxospiro[4H-pyran-4,2′(3′H)-[7H]pyrido[1,2,3-de][1,4]benzoxazine]-6′-carboxamide] are 251 to 254 °C and 530 nM.
Turning to `CSCC1Cn2cc(C(=O)NCc3ccc(Cl)cc3)c(=O)c3cc(CN4CCOCC4)cc(c32)O1` (stereo not shown) [Example 14, N-(4-Chlorobenzyl)-2-[(methylsulfanyl)methyl]-9-(4-morpholinylmethyl)-7-oxo-2,3-dihydro-7H-[1,4]oxazino[2,3,4-ij]quinoline-6-carboxamide], the melting point was 190 to 191 °C. In addition, the IC50 at CMV polymerase is 550 nM.
On the same counts, the results for `CC(C)(C)SCC1Cn2cc(C(=O)NCc3ccc(Cl)cc3)c(=O)c3cc(CN4CCOCC4)cc(c32)O1` (stereo not shown) [Example 15, 2-[(tert-Butylsulfanyl)methyl]-N-(4-chlorobenzyl)-9-(4-morpholinylmethyl)-7-oxo-2,3-dihydro-7H-[1,4]oxazino[2,3,4-ij]quinoline-6-carboxamide] are 198 to 201 °C and 420 nM.
As to `O=C(NCc1ccc(Cl)cc1)c1cn2c3c(cc(CN4CCOCC4)cc3c1=O)OC(CN1CCCCC1)C2` (stereo not shown) [Example 8, N-(4-Chlorobenzyl)-9-(4-morpholinylmethyl)-7-oxo-2-(1-piperidinylmethyl)-2,3-dihydro-7H-[1,4]oxazino[2,3,4-ij]quinoline-6-carboxamide], the melting point lay in the range of 213 to 215 °C. For the same compound, the IC50 at CMV polymerase worked out at 1500 nM.
In turn, `COCOc1cc(OCOC)cc(C2Cn3cc(C(=O)NCc4ccc(Cl)cc4)c(=O)c4cc(CN5CCOCC5)cc(c43)O2)c1` (stereo not shown) [Example 43, 2-[3,5-bis(Methoxymethoxy)phenyl]-N-(4-chlorobenzyl)-9-(morpholin-4-ylmethyl)-7-oxo-2,3-dihydro-7H-[1,4]oxazino[2,3,4-ij]quinoline-6-carboxamide] showed a melting point of 187 to 189 °C. Moreover, at CMV polymerase, the IC50 was 400 nM.
The corresponding values for `O=C(NCc1ccc(Cl)cc1)c1cn2c3c(cc(CN4CCOCC4)cc3c1=O)OC(c1cccc(O)c1)C2` (stereo not shown) [Example 63, N-(4-Chlorobenzyl)-2-(3-hydroxyphenyl)-9-(4-morpholinylmethyl)-7-oxo-2,3-dihydro-7H-[1,4]oxazino[2,3,4-ij]quinoline-6-carboxamide] are 213 °C (dec.) and 290 nM.
Take `O=C(NCc1ccc(Cl)cc1)c1cn2c3c(cc(CN4CCOCC4)cc3c1=O)OC(CO)(CO)C2` [Example 52, N-(4-Chlorobenzyl)-2,2-bis(hydroxymethyl)-9-(morpholin-4-ylmethyl)-7-oxo-2,3-dihydro-7H-[1,4]oxazino[2,3,4-ij]quinoline-6-carboxamide]: the melting point lay within 230 to 233 °C. For the same compound, on CMV polymerase, the IC50 was 810 nM.
The corresponding values for `COCOCc1cccc(C2Cn3cc(C(=O)NCc4ccc(Cl)cc4)c(=O)c4cc(CN5CCOCC5)cc(c43)O2)c1` (stereo not shown) [Example 61, N-(4-Chlorobenzyl)-2-{3-[(methoxymethoxy)methyl]phenyl}-9-(morpholin-4-ylmethyl)-7-oxo-2,3-dihydro-7H-[1,4]oxazino[2,3,4-ij]quinoline-6-carboxamide] are 186.5 to 189 °C and 540 nM.
For the compound `O=C(NCc1ccc(Cl)cc1)c1cn2c3c(cc(CN4CCOCC4)cc3c1=O)OC(c1ccc3c(c1)OCO3)C2` (stereo not shown) [Example 40, 2-(1,3-Benzodioxol-5-yl)-N-(4-chlorobenzyl)-9-(morpholin-4-ylmethyl)-7-oxo-2,3-dihydro-7H-[1,4]oxazino[2,3,4-ij]quinoline-6-carboxamide], the melting point was 227 to 231 °C. Besides, the IC50 on CMV polymerase is 330 nM.
On to `COCOCC1(COCOC)Cn2cc(C(=O)NCc3ccc(Cl)cc3)c(=O)c3cc(CN4CCOCC4)cc(c32)O1` [Example 51, N-(4-Chlorobenzyl)-2,2-bis[(methoxymethoxy)methyl]-9-(morpholin-4-ylmethyl)-7-oxo-2,3-dihydro-7H-[1,4]oxazino[2,3,4-ij]quinoline-6-carboxamide], for which the melting point fell in the range of 147 to 149 °C. Further, the IC50 on CMV polymerase turned out to be 750 nM.
Take `O=C(NCc1ccc(Cl)cc1)c1cn2c3c(cc(CN4CCOCC4)cc3c1=O)OC1(CCC3(CC1)OCCO3)C2` [Example 50]: the melting point is over 260 °C. Further, the IC50 on CMV polymerase is 1170 nM.
Turning to `O=C(NCc1ccc(Cl)cc1)c1cn2c3c(cc(CN4CCOCC4)cc3c1=O)OC(c1cccc(CO)c1)C2` (stereo not shown) [Example 62, N-(4-Chlorobenzyl)-2-[3-(hydroxymethyl)phenyl]-9-(morpholin-4-ylmethyl)-7-oxo-2,3-dihydro-7H-[1,4]oxazino[2,3,4-ij]quinoline-6-carboxamide], the melting point lay in the range of 229 to 233 °C. Moreover, at CMV polymerase, the IC50 was found to be 380 nM.
In turn, `O=C(NCc1ccc(Cl)cc1)c1cn2c3c(cc(CN4CCOCC4)cc3c1=O)OC(c1ccoc1)C2` (stereo not shown) [Example 37, N-(4-Chlorobenzyl)-2-(3-furyl)-9-(morpholin-4-ylmethyl)-7-oxo-2,3-dihydro-7H-[1,4]oxazino[2,3,4-ij]quinoline-6-carboxamide] had a melting point of 193 to 196 °C. For the same compound, the IC50 on CMV polymerase was 380 nM.
`O=C(NCc1ccc(Cl)cc1)c1cn2c3c(cc(CN4CCOCC4)cc3c1=O)OC(F)(F)C2` [Example 28, N-(4-Chlorobenzyl)-2,2-difluoro-9-(4-morpholinylmethyl)-7-oxo-2,3-dihydro-7H-[1,4]oxazino[2,3,4-ij]quinoline-6-carboxamide] showed a melting point of 213.5 to 216.5 °C. In addition, the IC50 on CMV polymerase worked out at 600 nM.
With `O=C(NCc1ccc(Cl)cc1)c1cn2c3c(cc(CN4CCOCC4)cc3c1=O)OC(c1ccc(O)cc1)C2` (stereo not shown) [Example 65, N-(4-Chlorobenzyl)-2-(4-hydroxyphenyl)-9-(morpholin-4-ylmethyl)-7-oxo-2,3-dihydro-7H-[1,4]oxazino[2,3,4-ij]quinoline-6-carboxamide], the melting point is over 260 °C. Besides, the IC50 on CMV polymerase is 450 nM.
On to `O=C(NCc1ccc(Cl)cc1)c1cn2c3c(cc(CN4CCOCC4)cc3c1=O)OC(CN1CCOCC1)C2` (stereo not shown) [Example 2, N-(4-Chlorobenzyl)-2,9-bis(4-morpholinylmethyl)-7-oxo-2,3-dihydro-7H-[1,4]oxazino[2,3,4-ij]quinoline-6-carboxamide], for which the melting point lay within 178 to 180 °C. Also, on CMV polymerase, the IC50 was found to be 760 nM.
